Earlier results in paper PMC7935732 (Targeted Oncology, 2021).

What was measured:
CDK 4 = settings: compared with abemaciclib; cited from earlier work
CDK 6 = settings: compared with abemaciclib; cited from earlier work

In the case of Cc1nc2c(F)cc(-c3nc(Nc4ccc(CN5CCNCC5)cn4)ncc3F)cc2n1C(C)C [M2], the “Inhibitory potency for CDK 4” value (CDK 4) is listed as “comparable inhibitory potencies” and the “Inhibitory potency for CDK 6” value (CDK 6) is listed as “comparable inhibitory potencies”.

For CCN1CCN(Cc2ccc(Nc3ncc(F)c(-c4cc(F)c5nc(CO)n(C(C)C)c5c4)n3)nc2)CC1 [M20], the “Inhibitory potency for CDK 4” value (CDK 4) is listed as “comparable inhibitory potencies” and the “Inhibitory potency for CDK 6” value (CDK 6) is listed as “comparable inhibitory potencies”.
